Laboratory results: ChEMBL document CHEMBL3885861, “Open TG-GATES”

Organism: Rattus norvegicus
Assay: Open TG-GATES - Regimen: Daily Repeat
Assay type: toxicity, organism-based, Sprague-Dawley
Design: regimen Daily Repeat, gender Male, age 6 weeks
Details: in vivo, po, 100 mg/kg, route gavage, dose level Low; for APTT / Bas / Eos / Fbg / Hb / Ht / Lym / MCH / MCHC / MCV / Mono / Neu / PT / Plat / RBC / Ret / WBC: tissue Blood; for KIDNEY_L / KIDNEY_R / KIDNEY_TOTAL: tissue Kidney; for LIVER: tissue Liver; for A/G / ALP / ALT / AST / BUN / CRE / Ca / Cl / DBIL / GLC / IP / K / LDH / Na / PL / RALB / TBIL / TC / TG / TP / gamma-GTP: tissue Plasma

CC[C@@H](CO)NCCN[C@@H](CC)CO [ETHAMBUTOL]
TERMINAL_BW (72 h, time 3 day): 243.1 g
APTT (72 h, time 3 day): 21.1 s
Bas (72 h, time 3 day): 0%
Eos (72 h, time 3 day): 1%
Fbg (72 h, time 3 day): 341.6 mg/dL
Hb (72 h, time 3 day): 13.4 g/dL
Ht (72 h, time 3 day): 38.6%
Lym (72 h, time 3 day): 80.4%
MCH (72 h, time 3 day): 21.4 pg
MCHC (72 h, time 3 day): 34.9%
MCV (72 h, time 3 day): 61.5 fL
Mono (72 h, time 3 day): 3%
Neu (72 h, time 3 day): 14.2%
PT (72 h, time 3 day): 15.8 s
Plat (72 h, time 3 day): 123.9 x10_4/uL
RBC (72 h, time 3 day): 627.8 x10_4/ul
Ret (72 h, time 3 day): 6.4%
WBC (72 h, time 3 day): 92.5 x10_2/uL
KIDNEY_L (72 h, time 3 day): 1.1 g
KIDNEY_R (72 h, time 3 day): 1 g
KIDNEY_TOTAL (72 h, time 3 day): 2.1 g
LIVER (72 h, time 3 day): 12 g
A/G (72 h, time 3 day): 1.2
ALP (72 h, time 3 day): 1628.8 IU/L
ALT (72 h, time 3 day): 45.2 IU/L
AST (72 h, time 3 day): 72.4 IU/L
BUN (72 h, time 3 day): 17.4 mg/dL
CRE (72 h, time 3 day): 0.2 mg/dL
Ca (72 h, time 3 day): 10.8 mg/dL
Cl (72 h, time 3 day): 107 meq/L
DBIL (72 h, time 3 day): 0 mg/dL
GLC (72 h, time 3 day): 187 mg/dL
IP (72 h, time 3 day): 7.2 mg/dL
K (72 h, time 3 day): 4.1 meq/L
LDH (72 h, time 3 day): 158.4 IU/L
Na (72 h, time 3 day): 140.8 meq/L
PL (72 h, time 3 day): 156.4 mg/dL
RALB (72 h, time 3 day): 3.1 g/dL
TBIL (72 h, time 3 day): 0.016 mg/dL
TC (72 h, time 3 day): 82.2 mg/dL
TG (72 h, time 3 day): 117.8 mg/dL
TP (72 h, time 3 day): 5.6 g/dL
gamma-GTP (72 h, time 3 day): 1.6 IU/L
TERMINAL_BW ([…], time 7 day): 272 g
TERMINAL_BW ([…], time 14 day): 312.5 g
TERMINAL_BW ([…], time 28 day): 351.2 g
APTT ([…], time 7 day): 22.4 s
Bas ([…], time 7 day): 0%
Eos ([…], time 7 day): 0.8%
Fbg ([…], time 7 day): 340.4 mg/dL
Hb ([…], time 7 day): 13.9 g/dL
Ht ([…], time 7 day): 40.1%
Lym ([…], time 7 day): 80.6%
MCH ([…], time 7 day): 21.4 pg
MCHC ([…], time 7 day): 34.6%
MCV ([…], time 7 day): 62 fL
Mono ([…], time 7 day): 2.6%
Neu ([…], time 7 day): 14.8%
PT ([…], time 7 day): 15.8 s
Plat ([…], time 7 day): 125.3 x10_4/uL
RBC ([…], time 7 day): 646.8 x10_4/ul
Ret ([…], time 7 day): 5.9%
WBC ([…], time 7 day): 109.9 x10_2/uL
APTT ([…], time 14 day): 22.7 s
Bas ([…], time 14 day): 0%
Eos ([…], time 14 day): 1.2%
Fbg ([…], time 14 day): 318.2 mg/dL
Hb ([…], time 14 day): 14 g/dL
Ht ([…], time 14 day): 40.9%
Lym ([…], time 14 day): 80%
MCH ([…], time 14 day): 20.5 pg
MCHC ([…], time 14 day): 34.2%
MCV ([…], time 14 day): 60 fL
Mono ([…], time 14 day): 2.6%
Neu ([…], time 14 day): 15%
PT ([…], time 14 day): 16.9 s
Plat ([…], time 14 day): 110.4 x10_4/uL
RBC ([…], time 14 day): 681.8 x10_4/ul
Ret ([…], time 14 day): 4.5%
WBC ([…], time 14 day): 127.4 x10_2/uL
APTT ([…], time 28 day): 23.2 s
Bas ([…], time 28 day): 0%
Eos ([…], time 28 day): 1%
Fbg ([…], time 28 day): 288.8 mg/dL
Hb ([…], time 28 day): 14.5 g/dL
Ht ([…], time 28 day): 41.9%
Lym ([…], time 28 day): 81.2%
MCH ([…], time 28 day): 18.3 pg
MCHC ([…], time 28 day): 34.7%
MCV ([…], time 28 day): 52.9 fL
Mono ([…], time 28 day): 2%
Neu ([…], time 28 day): 14%
PT ([…], time 28 day): 16.6 s
Plat ([…], time 28 day): 94.5 x10_4/uL
RBC ([…], time 28 day): 792.8 x10_4/ul
Ret ([…], time 28 day): 2.6%
WBC ([…], time 28 day): 137.8 x10_2/uL
KIDNEY_L ([…], time 7 day): 1.1 g
KIDNEY_R ([…], time 7 day): 1.1 g
KIDNEY_TOTAL ([…], time 7 day): 2.3 g
KIDNEY_L ([…], time 14 day): 1.3 g
KIDNEY_R ([…], time 14 day): 1.3 g
KIDNEY_TOTAL ([…], time 14 day): 2.6 g
KIDNEY_L ([…], time 28 day): 1.3 g
KIDNEY_R ([…], time 28 day): 1.4 g
KIDNEY_TOTAL ([…], time 28 day): 2.7 g
LIVER ([…], time 7 day): 13.7 g
LIVER ([…], time 14 day): 14.2 g
LIVER ([…], time 28 day): 15.1 g
A/G ([…], time 7 day): 1.1
ALP ([…], time 7 day): 1577.2 IU/L
ALT ([…], time 7 day): 42.2 IU/L
AST ([…], time 7 day): 67.2 IU/L
BUN ([…], time 7 day): 18.2 mg/dL
CRE ([…], time 7 day): 0.2 mg/dL
Ca ([…], time 7 day): 10.4 mg/dL
Cl ([…], time 7 day): 106.6 meq/L
DBIL ([…], time 7 day): 0 mg/dL
GLC ([…], time 7 day): 185.4 mg/dL
IP ([…], time 7 day): 7.6 mg/dL
K ([…], time 7 day): 4 meq/L
LDH ([…], time 7 day): 154.6 IU/L
Na ([…], time 7 day): 141.8 meq/L
PL ([…], time 7 day): 147.6 mg/dL
RALB ([…], time 7 day): 3 g/dL
TBIL ([…], time 7 day): 0.01 mg/dL
TC ([…], time 7 day): 74.8 mg/dL
TG ([…], time 7 day): 113.6 mg/dL
TP ([…], time 7 day): 5.8 g/dL
gamma-GTP ([…], time 7 day): 2.4 IU/L
A/G ([…], time 14 day): 1.2
ALP ([…], time 14 day): 1502.6 IU/L
ALT ([…], time 14 day): 47.4 IU/L
AST ([…], time 14 day): 75.2 IU/L
BUN ([…], time 14 day): 19.6 mg/dL
CRE ([…], time 14 day): 0.2 mg/dL
Ca ([…], time 14 day): 10.3 mg/dL
Cl ([…], time 14 day): 106.4 meq/L
DBIL ([…], time 14 day): 0 mg/dL
GLC ([…], time 14 day): 195.4 mg/dL
IP ([…], time 14 day): 6.8 mg/dL
K ([…], time 14 day): 4.1 meq/L
LDH ([…], time 14 day): 144.6 IU/L
Na ([…], time 14 day): 141 meq/L
PL ([…], time 14 day): 132.8 mg/dL
RALB ([…], time 14 day): 3 g/dL
TBIL ([…], time 14 day): 0.014 mg/dL
TC ([…], time 14 day): 67 mg/dL
TG ([…], time 14 day): 81 mg/dL
TP ([…], time 14 day): 5.5 g/dL
gamma-GTP ([…], time 14 day): 2 IU/L
A/G ([…], time 28 day): 1.1
ALP ([…], time 28 day): 1233.8 IU/L
ALT ([…], time 28 day): 47.4 IU/L
AST ([…], time 28 day): 77 IU/L
BUN ([…], time 28 day): 20.8 mg/dL
CRE ([…], time 28 day): 0.2 mg/dL
Ca ([…], time 28 day): 9.8 mg/dL
Cl ([…], time 28 day): 106.4 meq/L
DBIL ([…], time 28 day): 0 mg/dL
GLC ([…], time 28 day): 195.6 mg/dL
IP ([…], time 28 day): 6 mg/dL
K ([…], time 28 day): 3.9 meq/L
LDH ([…], time 28 day): 143.6 IU/L
Na ([…], time 28 day): 141.8 meq/L
PL ([…], time 28 day): 133 mg/dL
RALB ([…], time 28 day): 2.9 g/dL
TBIL ([…], time 28 day): 0.026 mg/dL
TC ([…], time 28 day): 76.8 mg/dL
TG ([…], time 28 day): 62.4 mg/dL
TP ([…], time 28 day): 5.7 g/dL
gamma-GTP ([…], time 28 day): 1.8 IU/L
